Measurements published in ChEMBL document CHEMBL1140513, “Heteroatom-linked indanylpyrazines are corticotropin releasing factor type-1 receptor antagonists” (Bioorg Med Chem Lett, 2007).
pKi: −log10 of the molar value.

Target: T1, Corticotropin-releasing factor receptor 1 (Homo sapiens, UniProt P34998)
T1 sequence (P34998 whole entry): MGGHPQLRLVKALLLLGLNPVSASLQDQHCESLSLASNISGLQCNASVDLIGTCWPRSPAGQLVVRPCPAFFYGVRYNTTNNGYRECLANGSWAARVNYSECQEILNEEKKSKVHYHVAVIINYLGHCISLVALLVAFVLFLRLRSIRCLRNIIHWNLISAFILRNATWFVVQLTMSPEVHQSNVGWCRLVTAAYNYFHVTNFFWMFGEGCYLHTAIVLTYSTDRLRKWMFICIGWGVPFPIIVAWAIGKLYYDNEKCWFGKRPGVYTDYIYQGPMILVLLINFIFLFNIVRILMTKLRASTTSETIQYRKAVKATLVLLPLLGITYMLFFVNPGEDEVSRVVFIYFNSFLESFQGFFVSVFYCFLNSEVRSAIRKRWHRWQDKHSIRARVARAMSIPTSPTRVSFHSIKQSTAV
Assay: Displacement of [125I]Tyr-o-CRF from CRF1 receptor in IMR32 cells
Assay type: cell-based, IMR-32

Row | SMILES | pKi
1 | CCc1nc(NC(CC)CC)c(CC)nc1Nc1ccc(Cl)cc1Cl | < 5.00
2 | CCc1nc(NC(CC)CC)c(CC)nc1Nc1ccc([N+](=O)[O-])cn1 | < 5.00
3 | CCO[C@H]1Cc2ccccc2[C@H]1Nc1nc(CC)c(Oc2cc(C)ccn2)nc1CC | 7.46
4 | CCc1nc(NC(CC)CC)c(CC)nc1Nc1ncc(Cl)cc1Cl | 6.94
5 | CCOCC(Nc1nc(CC)c(Oc2cc(C)ccn2)nc1CC)c1ccccc1 (centres undefined) | 6.42
6 | CCc1nc(Oc2cc(C)ccn2)c(CC)nc1NC(CC)CC | < 5.00
7 | CCO[C@@H]1Cc2ccccc2[C@@H]1Nc1nc(CC)c(Oc2cc(C)ccn2)nc1CC | < 5.00
8 | CCc1nc(Oc2cc(C)ccn2)c(CC)nc1N[C@@H]1c2ccccc2C[C@@H]1OC(C)=O | 5.69
9 | CCO[C@@H]1Cc2ccccc2[C@H]1Nc1nc(CC)c(Oc2cc(C)ccn2)nc1CC | < 5.00
10 | CCCO[C@H]1Cc2ccccc2[C@H]1Nc1nc(CC)c(Oc2cc(C)ccn2)nc1CC | 7.52
11 | CCc1nc(NC(CC)CC)c(CC)nc1Nc1ccccn1 | < 5.00
12 | CCO[C@H]1Cc2ccccc2[C@@H]1Nc1nc(CC)c(Oc2cc(C)ccn2)nc1CC | 5.26
13 | CCCN(CCC)c1nc(CC)c(Oc2cc(C)ccn2)nc1CC | 6.15
14 | CCO[C@H]1Cc2ccccc2[C@H]1Nc1nc(CC)c(Oc2ncccc2C)nc1CC | 6.29
15 | CCc1nc(NC(CC)CC)c(CC)nc1Nc1cccc(C)n1 | 5.47
16 | CCc1nc(N[C@@H]2c3ccccc3C[C@@H]2OCCF)c(CC)nc1Nc1ncc(Cl)cc1Cl | 5.76
17 | CCc1nc(NC(CC)c2ccccc2)c(CC)nc1Nc1ncc(Cl)cc1Cl (centres undefined) | < 5.00
18 | CCc1nc(Oc2cc(C)ccn2)c(CC)nc1N[C@H]1c2ccccc2C[C@H]1O | < 5.00
19 | CCO[C@H]1Cc2ccccc2[C@H]1Nc1nc(CC)c(Oc2cccc(C)n2)nc1CC | 6.33
